This note sets out measurements from article PMC11219860, “A chemogenetic approach for dopamine imaging with tunable sensitivity” (Nature Communications, 2024).

SMILES strings stand for the structures.

The target in the assay is dLight1.3bL143I (Homo sapiens, UniProt P21728, L143I). Put plainly: cell-based. It is filed as cell-based. The protocol: Cells were transfected at 50–60% confluency in glass-bottomed dishes (either individually or in 24-well plates) using the Effectene transfection kit (Qiagen) according to manufacturer instructions, and imaged 24–48 h after transfection. The Flp-In™ T-REx™ 293 cells (Thermo Fisher) with a stably integrated dLight1.3b cassette[48] were cultured as follows: the cells were cultured using HEK293T cell medium with the addition of Blasticidin (15 µg/ml) and Hygromycin B (200 µg/ml). To induce the expression of dLight1.3b, doxycycline (500 ng/ml) was added to the culture medium for 24–48 hours. Before imaging, cells were rinsed with 1 mL of Hank’s Balanced Salt Solution (HBSS, Life Technologies) supplemented with Ca^2+ (2 mM) and Mg^2+ (1 mM), and imaged at room temperature with a final HBSS volume of either 100 µL for each individual 1.5 cm glass bottom dish, or 500 µL for 24-well plates. Time-lapse imaging was performed on an inverted Zeiss LSM 800 confocal microscope using a 488 nm laser and a 40X oil-based objective. During imaging, ligands were added in bolus on the cells using a micropipette to reach the final specified concentrations of ligand over the cells. For quantification, except otherwise noted, regions of interest (ROI) were selected manually using the threshold function of Fiji to isolate the cell membrane. Sensor response (∆F/F) was calculated as the following: (F(t)-F_base)/F_base with F(t) being the ROI fluorescence value at each time point (t), and F_base being the mean fluorescence of the 10-time points immediately prior to ligand addition.
Sequence of dLight1.3bL143I (P21728 whole entry L143I, looked up): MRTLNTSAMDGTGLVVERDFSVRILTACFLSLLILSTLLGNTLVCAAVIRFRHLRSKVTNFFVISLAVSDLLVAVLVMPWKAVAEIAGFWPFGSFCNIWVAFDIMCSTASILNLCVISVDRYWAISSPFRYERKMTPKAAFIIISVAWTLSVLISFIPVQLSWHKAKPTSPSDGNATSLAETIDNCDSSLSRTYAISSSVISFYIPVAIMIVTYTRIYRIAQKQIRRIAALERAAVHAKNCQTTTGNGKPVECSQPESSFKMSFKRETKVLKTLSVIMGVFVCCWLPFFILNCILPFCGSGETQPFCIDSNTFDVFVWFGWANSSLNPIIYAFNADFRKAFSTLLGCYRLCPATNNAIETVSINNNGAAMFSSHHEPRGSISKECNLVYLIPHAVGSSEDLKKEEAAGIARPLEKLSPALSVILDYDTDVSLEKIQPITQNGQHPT

On to `C[C@H]1c2cccc(C(C)(C)O)c2C[C@H](CO)N1C(=O)Cc1c(Cl)cccc1Cl` [DETQ, 2-(2,6-dichlorophenyl)-1-((1S,3R)-3-(hydroxymethyl)-5-(2-hydroxypropan-2-yl)-1-methyl-3,4-dihydroisoquinolin-2(1H)-yl)ethan-1-one], for which the Kb amounted to 17.7 nM, the “sensor response to DETQ in the absence of DA” value is reported as “could not trigger a response” and the α factor is recorded as 10.8. Moreover, the “maximal fluorescent response to a saturating concentration of DA” value (DA 100 µM, wide range of DETQ concentrations) is on record as “not affected”. Further, the “increase in DETQ potency versus dLight1.3b” value (human, hek293 cells) was found to be 3 fold.
